Measurements: patent US6255317A, “Cholesterol biosynthesis inhibitors” (Hanwha Chemical Corporation, priority 1998, dated 2001)
Read-outs that look alike come from different tables or passages of the source.

What was measured:
[1] = system: Syrian Golden Hamster; assay: In vivo effect on plasma lipids and glucose in Syrian Golden Hamster; details: for total cholesterol, LDL-cholesterol, and triglyceride levels (in words): Syrian Golden Hamster, compared with lovastatin; for Glucose, percent change in parentheses / HDL cholesterol, percent change in parentheses / LDL cholesterol, percent change in parentheses / Total cholesterol, percent change in parentheses / Trigly-ceride, percent change in parentheses: against normal diet control, 6.0 mg/kg/day; for Glucose / HDL cholesterol / LDL cholesterol / Total cholesterol / Trigly-ceride: normal diet + 6.0 mg/kg/day, oral, 14 days; for Glucose: hamster; for HDL cholesterol / LDL cholesterol / Total cholesterol / Trigly-ceride: hamster plasma
Description: In order to investigate the effect of the compound of formula (1) of the invention, the compound was orally administered into male Syrian Golden Hamsters having weights of 90~110 g and then blood was taken from each animal. Plasma lipids, i.e., total cholesterol, LDL-cholesterol, HDL-cholesterol and triglycerides were analyzed using an automatic analyzer (Automatic analyzer model Hitachi 7150).
Male Syrian Golden Hamsters weighing 90~110 g distributed from Samyuk Animal Laboratory, Seoul, Korea were bred under the following conditions: They were maintained under reverse light cycle (light cycle: from 6 P.M to 6 A.M; dark cycle: from 6 A.M. to 6 P.M.). The food and water were supplied at 10 A.M. The commercially available standard rodent chows were used. The hamsters were divided into 6 or 7 animals per group. The animals were fasted for 12 hours before administrating the drug. Then, dehydrocoridaline derivatives dissolved in a 0.25% methyl cellulose solution was administered orally for 14 days at the indicated time per a day. After fasting animals for 24 hours from the last administration, blood was extracted using a cardiac puncture and plasma was then isolated. Plasma lipids, i.e., total cholesterol, LDL-cholesterol, HDL-cholesterol and triglyceride values were analyzed using Automatic Analyzer (Hitachi 7150).

[2] = system: SD rats; assay: Acute oral toxicity in SD rats; type: in vivo; details: for general symptoms, weight change and lethal case over two weeks: rat, in vivo
Description: (§1) Meanwhile, the toxicity of the compounds of the present invention was mvestigated as follows: i.e., the compounds were suspended into propylene glycol and then orally administered into each of 5 male and female SD rats at the age of 5-weeks that were fasted for 12 hours. Under the usual breeding conditions, general symptoms, weight change and lethal case of the above rats were monitored for two weeks. At the dose over 2,000 mg/kg of the compound nos. […] Rats were safe against the dose of 700 mg/kg of compound no. 8.

[3] = Acute oral toxicity in SD rats; type: in vivo; details: rat, in vivo, po, rats
Description: as §1

[4] = biological target: T1, sterol 14-reductase (Rattus norvegicus, UniProt A0ACM8Q6X4); assay: Sterol 14-reductase assay with rat liver microsomes (substrate 4,4-dimethyl-5α-cholesta-7,14-dien-3β-ol, GLC); type: biochemical, Sprague-Dawley rats
T1 construct: to give a microsome which was used as an enzyme source of sterol 14-reductase; from tissue
T1 sequence (A0ACM8Q6X4 1-418): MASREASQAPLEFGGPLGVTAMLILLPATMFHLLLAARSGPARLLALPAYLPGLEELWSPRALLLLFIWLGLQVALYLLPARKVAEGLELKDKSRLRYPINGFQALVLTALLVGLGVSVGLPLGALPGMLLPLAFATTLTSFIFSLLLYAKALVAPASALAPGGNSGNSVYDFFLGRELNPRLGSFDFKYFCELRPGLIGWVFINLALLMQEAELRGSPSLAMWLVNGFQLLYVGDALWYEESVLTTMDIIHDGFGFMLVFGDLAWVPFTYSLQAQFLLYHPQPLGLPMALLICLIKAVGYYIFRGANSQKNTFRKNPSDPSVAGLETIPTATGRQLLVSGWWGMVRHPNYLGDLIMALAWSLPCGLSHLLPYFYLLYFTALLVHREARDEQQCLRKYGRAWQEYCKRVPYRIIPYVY
Description: First, a screening system for sterol 14-reductase was constructed in which 4,4-dimethyl-5α-cholesta-7,14-dien-3β-ol is used as a substrate and then, the effect on the activity of sterol 14-reductase was investigated in the screening system.
The animals were fasted for 12 hours before excising liver tissues and then sacrificed by decapitation at midnight. An aqueous solution containing 0.25M of sucrose was injected into the hepatic portal vein to remove all the blood within the liver, and then, the liver was excised. The liver was homogenated with two volummes of buffer solution 1 (0.1 M potassium phosphate , 1 mM reduced glutathione, 0.5 mM EDTA, 20% (v/v) glycerol, pH 7.4) by repeating pestles over 10 times and then, centrifuged with 900×g for 5 minutes to give a supernatant. The supernatant was centrifuged with 12,000×g for 20 minutes. The supernatant obtained was ultracentrifuged with 105,000×g for 90 minutes to give a microsome which was used as an enzyme source of sterol 14-reductase. Assay against sterol 14-reductase was carried out as follows: 60 nmol of 4,4-dimethyl-5α-cholesta-7,14-dien-3β-ol and the extract from Corydalis Turtschaninowii Besser dissolved into DMSO were added to an assay mixture (total volume 1.0 ml) containing 2 mg of microsomal protein, 2 mM of NADPH and 25 mg of glucose plus 20 units of glucose oxidase with preincubations under nitrogen at 37° C. for 4 min unless otherwise specified to establish anaerobic condition. Buffer A (0.1M potassium phosphate buffer, pH 7.4, including 1 mM reduced glutathione, 0.5 mM EDTA, and 20% (v/v) glycerol) used for incubation had been equilibrated with nitrogen, and nitrogen was exchanged for air in all sealed reaction flasks prior to the start of incubations. Incubation of the complete mixture was carried out anaerobically in sealed flasks for 10 min at 37° C. unless otherwise indicated. Incubations were terminated by the addition of 1 ml of ethanolic KOH followed by heating under reflux for 10 min. Sterols were extracted four times with 4 ml of petroleum ether, and the solvent was evaporated to dryness under a nitrogen stream. The resulting residue was dissolved in 200-500 μl of n-hexane for quantification by GLC at high sensitive attenuation. The activity of sterol 14-reductase was determined with the amount of the substrate wherein the double bonds of 14-carbon were reduced (for the amount reduced by 1 mg of the microsome protein for 1 minute).

[5] = system: human liver HepG2 cell line; assay: Cholesterol biosynthesis in cultured human liver cell line HepG2 ([1,2-14C]acetate); type: cell-based; details: compared with AY9944, comparative drug
Description: Cultured human liver HepG2 cell line was grown on RPMI (Rosewell park Memorial Institute) 1640 culture medium containing 10% […] until 60% of monolayer are formed in a 60 mm culture dish. After replacing the medium with 3 ml of a fresh culture medium containing 10%(v/v) LPDS (Fetal calf lipoprotein-deficient serum), the cells were further grown for 48 hours until 90% of cultivation degree appear. The culture medium was removed and the cell was then washed with PBS. 2 ml of culture medium containing compound no. 8 (final concentration 100 μM) and AY-9944 (final concentration 1 μM) were added thereto. Then, the medium was cultivated at 37° C. for 1 hour under the condition of 95% air/5% carbonic acid gas. AY-9944 which is an inhibitor for sterol 7-reductase was used as a control drug for assuring the present experimental procedure on the inhibition of cholesterol biosynthesis. Thereafter, 3 μCi of [1 ,2-^14 C]acetate (72 mCi/mmol) were added thereto. The cultivation was continued for 2 hours so that the isotope is introduced into the cell and used as a precursor for sterol to be synthesized. Then, the culture medium was completely removed and washed with PBS twice and the cells were collected by scratching. 10 μg of cholesterol, 10 μg of lanosterol and [^3 H]cholesterol (30,000 dpm) were added thereto, and saponification reaction was carried out at 70° C. for an hour by adding 7.5% of methanolic KOH solution. Unsaponified sterol was removed by extracting them three times with 3 ml of petroleum ether and dried with nitrogen purging. The dried samples were redissolved in 200 μl of chloroform. An aliquot of the samples was loaded onto Silicagel 60F thin layer plate and then separated using ethyl acetate/hexane 25/75 (v/v) as the developing solvent. The thin layer film was developed by exposure to Amersham Hyperfilm at -70° C. for 7 days. Cholesterol band were confirmed by comparing the band appeared in the film and that appeared in the iodine-stained thin layer. After scratching the cholesterol band, it was quantified by a liquid scintillation counter.

[6] = read-out: Enzyme Activity (relative in vitro activity for sterol 14-reductase, IC50 class)

| IC50 [4, 6] [µM] | SMILES | total cholesterol, LDL-cholesterol, and triglyceride levels (in words) [1] | Glucose, percent change in parentheses [1] | HDL cholesterol, percent change in parentheses [1] | LDL cholesterol, percent change in parentheses [1] [%] | Total cholesterol, percent change in parentheses [1] [%] | Trigly-ceride, percent change in parentheses [1] [%] | Glucose [1] [mg/dL] | HDL cholesterol [1] [mg/dL] | LDL cholesterol [1] [mg/dL] | Total cholesterol [1] [mg/dL] | Trigly-ceride [1] [mg/dL] | general symptoms, weight change and lethal case over two weeks [2] | LD50 at 336 h ([3]; female) [mg/kg] | LD50 at 336 h ([3]; male) [mg/kg] | cholesterol biosynthesis in human HepG2 cell line (in words) [5] | safety of rats at single oral dose ([2]; dose of 700 mg/kg, oral, SD rats) | IC50 ([4]; dissolved in DMSO, read-out: concentration of active ingredient in the assay at which 50% of inhibitory effect was observed (sterol 14-reductase)) [µM] |
| --- | --- | --- | --- | --- | --- | --- | --- | --- | --- | --- | --- | --- | --- | --- | --- | --- | --- | --- |
| ≤ 1 | CCC(=O)CC1c2c(ccc(OC)c2OC)C(CC)=C2c3cc(OC)c(OC)cc3CCN21 (centres unmarked) [Compound No. 38, 8-(butan-2-one-1-yl)-13-ethyldihydropalmatine] |  |  |  |  |  |  |  |  |  |  |  |  |  |  | markedly inhibited |  |  |
| ≤ 1 | CCc1c2[n+](cc3c(OC)c(OC)ccc13)CCc1cc3c(cc1-2)OCO3 [Compound No. 6, 13-Ethylberberine] |  |  |  |  |  |  |  |  |  |  |  |  |  |  | markedly inhibited |  |  |
| ≤ 1 | CCOc1cc2c(cc1OCC)C1=C(CC)c3ccc(OCC)c(OCC)c3CN1CC2 [Compound No. 47, 13-Ethyl-2,3,9,10-tetraethoxydihydroprotoberberine] |  |  |  |  |  |  |  |  |  |  |  |  |  |  | markedly inhibited |  |  |
|  | CC[C@H](C)C(=O)O[C@H]1C[C@@H](C)C=C2C=C[C@H](C)[C@H](CC[C@@H]3C[C@@H](O)CC(=O)O3)[C@H]21 [lovastatin, reference compound] |  | +1.0% | -2.6% | -29.1 | -22.7 |  | 184.6 ± 23.2 | 51.4 ± 2.6 | 29.9 ± 1.9 | 97.4 ± 3.4 | 182.6 ± 17.0 |  |  |  |  |  |  |
| 10 to 100 | COc1ccc2c(C)c3[n+](cc2c1OC)CCc1cc2c(cc1-3)OCO2 [Compound No. 1, 13-Methylberberine] |  |  |  |  |  |  |  |  |  |  |  |  |  |  |  |  |  |
| ≥ 100 | COc1cc2c(cc1OC)-c1c(CC3CCCCC3)c3ccc(OC)c(OC)c3c[n+]1CC2 [Compound No. 15, 13-(cyclohexylmethyl)palmatine] |  |  |  |  |  |  |  |  |  |  |  |  |  |  |  |  |  |
| ≥ 100 | CCCCCCCCc1c2[n+](cc3c(OC)c(OC)ccc13)CCc1cc(OC)c(OC)cc1-2 [Compound No. 14, 13-n-octylpalmatine] |  |  |  |  |  |  |  |  |  |  |  |  |  |  |  |  |  |

| SMILES | IC50 [4, 6] [µM] | total cholesterol, LDL-cholesterol, and triglyceride levels (in words) [1] | Glucose, percent change in parentheses [1] | HDL cholesterol, percent change in parentheses [1] | LDL cholesterol, percent change in parentheses [1] [%] | Total cholesterol, percent change in parentheses [1] [%] | Trigly-ceride, percent change in parentheses [1] [%] | Glucose [1] [mg/dL] | HDL cholesterol [1] [mg/dL] | LDL cholesterol [1] [mg/dL] | Total cholesterol [1] [mg/dL] | Trigly-ceride [1] [mg/dL] | general symptoms, weight change and lethal case over two weeks [2] | LD50 at 336 h ([3]; female) [mg/kg] | LD50 at 336 h ([3]; male) [mg/kg] | cholesterol biosynthesis in human HepG2 cell line (in words) [5] | safety of rats at single oral dose ([2]; dose of 700 mg/kg, oral, SD rats) | IC50 ([4]; dissolved in DMSO, read-out: concentration of active ingredient in the assay at which 50% of inhibitory effect was observed (sterol 14-reductase)) [µM] |
| --- | --- | --- | --- | --- | --- | --- | --- | --- | --- | --- | --- | --- | --- | --- | --- | --- | --- | --- |
| CCC1=C2c3cc(OC)c(OC)cc3CCN2C(CC(C)=O)c2c1ccc(OC)c2OC (centres unmarked) [Compound No. 37, 8-Acetonyl-13-ethyldihydropalmatine] | ≤ 1 | markedly decreased | -23.0% | +2.0% | -52.1 | -33.5 | -48.1 | 140.4 ± 15 | 54.2 ± 3.0 | 20.2 ± 2.0 | 83.8 ± 5.6 | 68.8 ± 11.5 | general symptoms and the body weight change of the animals were normal and the lethal case was not observed | > 2000 | > 2500 | markedly inhibited |  |  |
| CCc1c2[n+](cc3c(OC)c(OC)ccc13)CCc1cc(OC)c(OC)cc1-2 [Compound No. 8, 13-Ethylpalmatine] | ≤ 1 | markedly decreased | -10.9% | -1.8% | -42.0 | -25.4 | -31.7 | 162.2 ± 11.3 | 47.5 ± 3.0 | 24.5 ± 1.8 | 94.0 ± 6.6 | 90.4 ± 8.9 |  | > 760 | > 925 | markedly inhibited | safe | 100 to 3000 |
| CCOc1cc2c(cc1OCC)-c1c(CC)c3ccc(OCC)c(OCC)c3c[n+]1CC2 [Compound No. 5, 2,3,9,10-Tetraethoxy-13-ethylberberine] | ≤ 1 | markedly decreased | -12.4% | -3.2% | -41.2 | -23.5 | -28.5 | 160.2 ± 20.9 | 51.1 ± 3.0 | 24.9 ± 3.0 | 97.0 ± 5.6 | 94.7 ± 11.5 | general symptoms and the body weight change of the animals were normal and the lethal case was not observed | > 5000 | > 5000 | markedly inhibited |  |  |
| CCC1=C2c3cc(OC)c(OC)cc3CCN2Cc2c1ccc(OC)c2OC [Compound No. 46, 13-Ethyldihydropalmatine] | ≤ 1 | markedly decreased | -12.7% | -6.8% | -50.7 | -34.6 | -35.6 | 158.8 ± 16 | 49.2 ± 2.9 | 20.8 ± 2.3 | 82.4 ± 5.4 | 85.2 ± 11.0 | general symptoms and the body weight change of the animals were normal and the lethal case was not observed | > 3000 | > 3000 | markedly inhibited |  |  |
